Measured values taken from ChEMBL document CHEMBL1649226, “Species identification and antifungal susceptibility patterns of species belonging to Aspergillus section Nigri” (2009).

Tests used:
Assay type in all cases: functional
[1] = tested on: Aspergillus tubingensis; experiment: Antifungal activity against Aspergillus tubingensis isolate CM-3810 obtained from respiratory tract infection of patient after 48 hrs by EUCAST broth dilution method; details: isolate CM-3810, 48 h
[2] = tested on: Aspergillus tubingensis; experiment: Antifungal activity against Aspergillus tubingensis isolate CM-4688 obtained from respiratory tract infection of patient after 48 hrs by EUCAST broth dilution method; details: isolate CM-4688, 48 h
[3] = tested on: Aspergillus niger; experiment: Antifungal activity against Aspergillus niger isolate CM-3506 obtained from respiratory tract infection of patient after 48 hrs by EUCAST broth dilution method; details: isolate CM-3506, 48 h
[4] = tested on: Aspergillus foetidus; experiment: Antifungal activity against Aspergillus foetidus isolate CM-4002 after 48 hrs by EUCAST broth dilution method; details: isolate CM-4002, 48 h
[5] = tested on: Aspergillus niger; experiment: Antifungal activity against Aspergillus niger isolate CM-5095 obtained from respiratory tract infection of patient after 48 hrs by EUCAST broth dilution method; details: isolate CM-5095, 48 h
[6] = tested on: Aspergillus tubingensis; experiment: Antifungal activity against Aspergillus tubingensis isolate CM-3585 after 48 hrs by EUCAST broth dilution method; details: isolate CM-3585, 48 h
[7] = tested on: Aspergillus niger; experiment: Antifungal activity against Aspergillus niger isolate CM-3257 obtained from respiratory tract infection of patient after 48 hrs by EUCAST broth dilution method; details: isolate CM-3257, 48 h
[8] = tested on: Aspergillus tubingensis; experiment: Antifungal activity against Aspergillus tubingensis isolate CM-4352 obtained from respiratory tract infection of patient after 48 hrs by EUCAST broth dilution method; details: isolate CM-4352, 48 h
[9] = tested on: Aspergillus niger; experiment: Antifungal activity against Aspergillus niger isolate CM-3551 obtained from respiratory tract infection of patient after 48 hrs by EUCAST broth dilution method; details: isolate CM-3551, 48 h
[10] = tested on: Aspergillus niger; experiment: Antifungal activity against Aspergillus niger isolate CM-4004 obtained from after 48 hrs by EUCAST broth dilution method; details: isolate CM-4004, 48 h
[11] = tested on: Aspergillus tubingensis; experiment: Antifungal activity against Aspergillus tubingensis isolate CM-5094 obtained from respiratory tract infection of patient after 48 hrs by EUCAST broth dilution method; details: isolate CM-5094, 48 h
[12] = tested on: Aspergillus niger; experiment: Antifungal activity against Aspergillus niger isolate CM-3636 obtained from respiratory tract infection of patient after 48 hrs by EUCAST broth dilution method; details: isolate CM-3636, 48 h
[13] = tested on: Aspergillus tubingensis; experiment: Antifungal activity against Aspergillus tubingensis isolate CM-3125 obtained from respiratory tract infection of patient after 48 hrs by EUCAST broth dilution method; details: isolate CM-3125, 48 h
[14] = tested on: Aspergillus tubingensis; experiment: Antifungal activity against Aspergillus tubingensis isolate CM-3177 obtained from respiratory tract infection of patient after 48 hrs by EUCAST broth dilution method; details: isolate CM-3177, 48 h
[15] = tested on: Aspergillus niger; experiment: Antifungal activity against Aspergillus niger isolate CM-3586 obtained from catheter of patient after 48 hrs by EUCAST broth dilution method; details: isolate CM-3586, 48 h
[16] = tested on: Aspergillus tubingensis; experiment: Antifungal activity against Aspergillus tubingensis isolate CM-4000 after 48 hrs by EUCAST broth dilution method; details: isolate CM-4000, 48 h
[17] = tested on: Aspergillus tubingensis; experiment: Antifungal activity against Aspergillus tubingensis isolate CM-3654 obtained from blood culture after 48 hrs by EUCAST broth dilution method; details: isolate CM-3654, 48 h
[18] = tested on: Aspergillus tubingensis; experiment: Antifungal activity against Aspergillus tubingensis isolate CM-4897 obtained from blood culture after 48 hrs by EUCAST broth dilution method; details: isolate CM-4897, 48 h
[19] = tested on: Aspergillus tubingensis; experiment: Antifungal activity against Aspergillus tubingensis isolate CM-4001 after 48 hrs by EUCAST broth dilution method; details: isolate CM-4001, 48 h
[20] = tested on: Aspergillus niger; experiment: Antifungal activity against Aspergillus niger isolate CM-3236 obtained from respiratory tract infection of patient after 48 hrs by EUCAST broth dilution method; details: isolate CM-3236, 48 h
[21] = tested on: Aspergillus foetidus; experiment: Antifungal activity against Aspergillus foetidus isolate CM-4995 obtained from prosthesis after 48 hrs by EUCAST broth dilution method; details: isolate CM-4995, 48 h
[22] = tested on: Aspergillus niger; experiment: Antifungal activity against Aspergillus niger isolate CM-3641 obtained from respiratory tract infection of patient after 48 hrs by EUCAST broth dilution method; details: isolate CM-3641, 48 h
[23] = tested on: Aspergillus tubingensis; experiment: Antifungal activity against Aspergillus tubingensis isolate CM-4899 obtained from respiratory tract infection of patient after 48 hrs by EUCAST broth dilution method; details: isolate CM-4899, 48 h
[24] = tested on: Aspergillus niger; experiment: Antifungal activity against Aspergillus niger isolate CM-4213 obtained from respiratory tract infection of patient after 48 hrs by EUCAST broth dilution method; details: isolate CM-4213, 48 h
[25] = tested on: Aspergillus foetidus; experiment: Antifungal activity against Aspergillus foetidus isolate CM-5264 obtained from respiratory tract infection of patient after 48 hrs by EUCAST broth dilution method; details: isolate CM-5264, 48 h
[26] = tested on: Aspergillus tubingensis; experiment: Antifungal activity against Aspergillus tubingensis isolate CM-4264 obtained from blood culture after 48 hrs by EUCAST broth dilution method; details: isolate CM-4264, 48 h
[27] = tested on: Aspergillus niger; experiment: Antifungal activity against Aspergillus niger isolate CM-4262 after 48 hrs by EUCAST broth dilution method Ophthalmic; details: isolate CM-4262, 48 h
[28] = tested on: Aspergillus niger; experiment: Antifungal activity against Aspergillus niger isolate CM-3672 obtained from cutaneous layer of patient after 48 hrs by EUCAST broth dilution method; details: isolate CM-3672, 48 h
[29] = tested on: Aspergillus niger; experiment: Antifungal activity against Aspergillus niger isolate CM-4316 obtained from respiratory tract infection of patient after 48 hrs by EUCAST broth dilution method; details: isolate CM-4316, 48 h
[30] = tested on: Aspergillus tubingensis; experiment: Antifungal activity against Aspergillus tubingensis isolate CM-3123 obtained from respiratory tract infection of patient after 48 hrs by EUCAST broth dilution method; details: isolate CM-3123, 48 h
[31] = tested on: Aspergillus tubingensis; experiment: Antifungal activity against Aspergillus tubingensis isolate CM-3507 obtained from respiratory tract infection of patient after 48 hrs by EUCAST broth dilution method; details: isolate CM-3507, 48 h
[32] = tested on: Aspergillus tubingensis; experiment: Antifungal activity against Aspergillus tubingensis isolate CM-4005 after 48 hrs by EUCAST broth dilution method; details: isolate CM-4005, 48 h
[33] = tested on: Aspergillus tubingensis; experiment: Antifungal activity against Aspergillus tubingensis isolate CM-4003 after 48 hrs by EUCAST broth dilution method; details: isolate CM-4003, 48 h
[34] = tested on: Aspergillus tubingensis; experiment: Antifungal activity against Aspergillus tubingensis isolate CM-4296 obtained from respiratory tract infection of patient after 48 hrs by EUCAST broth dilution method; details: isolate CM-4296, 48 h

Measured: MIC

C[C@@H]1[C@H](O)[C@@H](C)/C=C/C=C/C=C/C=C/C=C/C=C/C=C/[C@H](O[C@@H]2O[C@H](C)[C@@H](O)[C@H](N)[C@@H]2O)C[C@@H]2O[C@](O)(C[C@@H](O)C[C@@H](O)[C@H](O)CC[C@@H](O)C[C@@H](O)CC(=O)O[C@H]1C)C[C@H](O)[C@H]2C(=O)O [AMPHOTERICIN B]
0.12 µg/mL: [11] | [13] | [25] | [26] | [28] | [32] | [33] | [34]
0.25 µg/mL: [1] | [4] | [7] | [10] | [12] | [15] | [22] | [27] | [30]
0.19 µg/mL: [3] | [5] | [6] | [17] | [19] | [20] | [29] | [31]
0.5 µg/mL: [9]
0.33 µg/mL: [24]
0.16 µg/mL: [14] | [16] | [18] | [23]
0.21 µg/mL: [2] | [21]
0.28 µg/mL: [8]

CCC(C)n1ncn(-c2ccc(N3CCN(c4ccc(OCC5COC(Cn6cncn6)(c6ccc(Cl)cc6Cl)O5)cc4)CC3)cc2)c1=O (centres undefined) [ITRACONAZOLE]
1 µg/mL: [4] | [7] | [8] | [10] | [14] | [16] | [17] | [18] | [19] | [21] | [23] | [27]
0.14 µg/mL: [24]
0.75 µg/mL: [34]
3.67 µg/mL: [2]
4.75 µg/mL: [9]
11 µg/mL: [30]
4 µg/mL: [1]
0.5 µg/mL: [3] | [5] | [6] | [11] | [12] | [13] | [15] | [20] | [22] | [26] | [28] | [29] | [31]
16 µg/mL: [25] | [32] | [33]

CC[C@@H]([C@H](C)O)n1ncn(-c2ccc(N3CCN(c4ccc(OC[C@@H]5CO[C@@](Cn6cncn6)(c6ccc(F)cc6F)C5)cc4)CC3)cc2)c1=O [POSACONAZOLE]
0.19 µg/mL: [12] | [28] | [34]
0.03 µg/mL: [24]
0.16 µg/mL: [21]
0.5 µg/mL: [25] | [32]
0.12 µg/mL: [1] | [3] | [4] | [5] | [6] | [9] | [13] | [15] | [20] | [26]
0.15 µg/mL: [31]
0.25 µg/mL: [2] | [7] | [8] | [10] | [14] | [16] | [17] | [18] | [19] | [23] | [27] | [30] | [33]
0.125 µg/mL: [22] | [29]
0.06 µg/mL: [11]

C[C@@H](c1nc(-c2ccc(C#N)cc2)cs1)[C@](O)(Cn1cncn1)c1ccc(F)cc1F [RAVUCONAZOLE]
4 µg/mL: [32] | [33]
1.67 µg/mL: [6] | [10] | [13]
1 µg/mL: [3] | [7] | [12] | [20] | [22] | [29]
3.33 µg/mL: [2] | [14]
2.67 µg/mL: [4] | [23] | [30]
1.5 µg/mL: [5] | [26] | [28] | [31] | [34]
0.58 µg/mL: [24]
2.5 µg/mL: [17] | [19]
8 µg/mL: [25]
2 µg/mL: [1] | [8] | [9] | [11] | [15] | [16] | [18] | [21] | [27]

CN(C/C=C/C#CC(C)(C)C)Cc1cccc2ccccc12 [TERBINAFINE]
0.25 µg/mL: [9] | [22] | [32]
0.22 µg/mL: [24]
1.5 µg/mL: [2]
0.62 µg/mL: [5] | [11] | [31] | [34]
0.56 µg/mL: [19]
1 µg/mL: [1] | [7] | [12] | [20] | [33]
0.31 µg/mL: [3] | [8]
0.12 µg/mL: [15]
0.63 µg/mL: [17]
0.33 µg/mL: [4] | [16] | [21] | [23]
1.17 µg/mL: [30]
0.42 µg/mL: [6] | [18]
0.07 µg/mL: [28]
0.29 µg/mL: [27]
0.13 µg/mL: [10]
0.5 µg/mL: [13] | [25] | [26] | [29]
0.67 µg/mL: [14]

C[C@@H](c1ncncc1F)[C@](O)(Cn1cncn1)c1ccc(F)cc1F [VORICONAZOLE]
0.75 µg/mL: [3] | [5] | [11]
0.5 µg/mL: [12] | [20] | [29]
0.33 µg/mL: [24]
1.75 µg/mL: [19]
1 µg/mL: [6] | [7] | [9] | [10] | [13] | [15] | [22] | [26] | [28] | [31] | [34]
2 µg/mL: [1] | [2] | [4] | [14] | [16] | [17] | [18] | [21] | [23] | [25] | [27] | [32] | [33]
0.88 µg/mL: [8]
1.67 µg/mL: [30]
